From US20100267561A1, “HERBICIDAL PYRIDAZINONE DERIVATIVES” (priority 2007, published 2010)

Assays:
Assay in all cases: Test B pre-/postemergence plant response
Format in all cases: in vivo
Settings in all cases: Preemergence
[1] = tested on: Russian thistle (Salsola iberica)
Outline: (§1)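 Preemergence and postemergence (plants 2-18 cm, 1- to 4-leaf stage) applications used test chemicals in a non-phytotoxic solvent with surfactant. Plants were held in a greenhouse 13 to 15 days, then rated visually against controls on a 0-100 scale (0 no effect, 100 complete control).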

corn (Zea mays) = tested on: corn (Zea mays)
Outline: as §1

[2] = tested on: downy bromegrass (Bromus tectorum)
Outline: as §1

soybean (Glycine max) = tested on: soybean (Glycine max)
Outline: as §1

[3] = tested on: morningglory (Ipomoea coccinea)
Outline: as §1

[4] = tested on: bermudagrass (Cynodon dactylon)
Outline: as §1

[5] = tested on: surinam grass (Brachiaria decumbens)
Outline: as §1

[6] = tested on: blackgrass (Alopecurus myosuroides)
Outline: as §1

[7] = tested on: wheat (Triticum aestivum)
Outline: as §1

[8] = tested on: cocklebur (Xanthium strumarium)
Outline: as §1

[9] = tested on: lambsquarters (Chenopodium album)
Outline: as §1

[10] = tested on: yellow nutsedge (Cyperus esculentus)
Outline: as §1

kochia (Kochia scoparia) = tested on: kochia (Kochia scoparia)
Outline: as §1

[11] = tested on: catchweed bedstraw (Galium aparine)
Outline: as §1

[12] = 16 g ai/ha, scale 0 to 100 (0 no effect, 100 complete control)
[13] = 31 g ai/ha, 0 to 100 scale, 0 no effect, 100 complete control

For `Cc1cn(-c2ccc(Cl)cc2)nc1-c1c(O)cnn(C)c1=O` [Compound 30, 4-[1-(4-chlorophenyl)-4-methyl-1H-pyrazol-3-yl]-5-hydroxy-2-methyl-3(2H)-pyridazinone], the “Plant response rating, Russian Thistle” value [1, 12] was 0, the “Plant response rating, Russian Thistle” value [1, 13] was 0 and the “Plant response rating, Russian Thistle” value ([1]; 62 g ai/ha, scale 0 to 100) was 0. For the same molecule, the “Russian Thistle plant response rating” value ([1]; 8 g ai/ha, scale 0 to 100) was 0, the “Corn plant response rating” value (corn (Zea mays); 8 g ai/ha, scale 0 to 100) was 0 and the Corn plant response rating (crop injury, 0 = no effect, 100 = complete kill) at 16 g/ha (corn (Zea mays); Zea mays, pre-emergence, 16 g ai/ha, scale 0 to 100 (0 no effect, 100 complete control)) was 5%. The Corn plant response rating (crop injury, 0 = no effect, 100 = complete kill) at 31 g/ha (corn (Zea mays); Zea mays, pre-emergence, 31 g ai/ha, 0 to 100 scale, 0 no effect, 100 complete control) was 5%, the Corn plant response rating (crop injury, 0 = no effect, 100 = complete kill) at 62 g/ha (corn (Zea mays); Zea mays, pre-emergence, 62 g ai/ha, scale 0 to 100) was 5% and the pest or weed control at 16 g/ha ([2]; Bromus tectorum, pre-emergence, 16 g ai/ha, scale 0 to 100 (0 no effect, 100 complete control), read-out: Plant response rating, Bromegrass, Downy) was 10%. The pest or weed control at 31 g/ha ([2]; Bromus tectorum, pre-emergence, 31 g ai/ha, 0 to 100 scale, 0 no effect, 100 complete control, read-out: Plant response rating, Bromegrass, Downy) was 10%, the pest or weed control at 62 g/ha ([2]; Bromus tectorum, pre-emergence, 62 g ai/ha, scale 0 to 100, read-out: Plant response rating, Bromegrass, Downy) was 85% and the “Bromegrass, Downy plant response rating” value ([2]; 8 g ai/ha, scale 0 to 100) was 0. The plant injury at 16 g/ha (soybean (Glycine max); Glycine max, pre-emergence, 16 g ai/ha, scale 0 to 100 (0 no effect, 100 complete control), read-out: Plant response rating, Soybean) was 0%, the plant injury at 31 g/ha (soybean (Glycine max); Glycine max, pre-emergence, 31 g ai/ha, 0 to 100 scale, 0 no effect, 100 complete control, read-out: Plant response rating, Soybean) was 0% and the plant injury at 62 g/ha (soybean (Glycine max); Glycine max, pre-emergence, 62 g ai/ha, scale 0 to 100, read-out: Plant response rating, Soybean) was 0%. The “Soybean plant response rating” value (soybean (Glycine max); 8 g ai/ha, scale 0 to 100) was 0, the pest or weed control at 16 g/ha ([3]; Ipomoea, pre-emergence, 16 g ai/ha, scale 0 to 100 (0 no effect, 100 complete control), read-out: Plant response rating, Morningglory) was 0% and the pest or weed control at 31 g/ha ([3]; Ipomoea, pre-emergence, 31 g ai/ha, 0 to 100 scale, 0 no effect, 100 complete control, read-out: Plant response rating, Morningglory) was 0%. For the same molecule, the “Morningglory plant response rating” value ([3]; 8 g ai/ha, scale 0 to 100) was 0, the pest or weed control at 16 g/ha ([4]; Cynodon dactylon, pre-emergence, 16 g ai/ha, scale 0 to 100 (0 no effect, 100 complete control), read-out: Plant response rating, Bermudagrass) was 90% and the pest or weed control at 31 g/ha ([4]; Cynodon dactylon, pre-emergence, 31 g ai/ha, 0 to 100 scale, 0 no effect, 100 complete control, read-out: Plant response rating, Bermudagrass) was 100%. For the same molecule, the pest or weed control at 62 g/ha ([4]; Cynodon dactylon, pre-emergence, 62 g ai/ha, scale 0 to 100, read-out: Plant response rating, Bermudagrass) was 100%, the “Bermudagrass plant response rating” value ([4]; 8 g ai/ha, scale 0 to 100 (0 no effect, 100 complete control)) was 60 and the “Surinam Grass plant response rating” value ([5]; 8 g ai/ha, scale 0 to 100) was 10. It also gave a pest or weed control at 16 g/ha ([5]; Urochloa decumbens, pre-emergence, 16 g ai/ha, scale 0 to 100 (0 no effect, 100 complete control), read-out: Plant response rating, Surinam Grass) of 60%, a pest or weed control at 31 g/ha ([5]; Urochloa decumbens, pre-emergence, 31 g ai/ha, 0 to 100 scale, 0 no effect, 100 complete control, read-out: Plant response rating, Surinam Grass) of 90% and a pest or weed control at 62 g/ha ([5]; Urochloa decumbens, pre-emergence, 62 g ai/ha, scale 0 to 100, read-out: Plant response rating, Surinam Grass) of 95%. It also gave a pest or weed control at 16 g/ha ([6]; Alopecurus myosuroides, pre-emergence, 16 g ai/ha, scale 0 to 100 (0 no effect, 100 complete control), read-out: Plant response rating, Blackgrass) of 60%, a pest or weed control at 31 g/ha ([6]; Alopecurus myosuroides, pre-emergence, 31 g ai/ha, 0 to 100 scale, 0 no effect, 100 complete control, read-out: Plant response rating, Blackgrass) of 100% and a pest or weed control at 62 g/ha ([6]; Alopecurus myosuroides, pre-emergence, 62 g ai/ha, scale 0 to 100, read-out: Plant response rating, Blackgrass) of 100%. For the same molecule, the “Blackgrass plant response rating” value ([6]; 8 g ai/ha, scale 0 to 100) was 0, the “Wheat plant response rating” value ([7]; 8 g ai/ha, scale 0 to 100) was 0 and the plant injury at 16 g/ha ([7]; Triticum aestivum, pre-emergence, 16 g ai/ha, scale 0 to 100 (0 no effect, 100 complete control), read-out: Plant response rating, Wheat) was 0%. For the same molecule, the plant injury at 31 g/ha ([7]; Triticum aestivum, pre-emergence, 31 g ai/ha, 0 to 100 scale, 0 no effect, 100 complete control, read-out: Plant response rating, Wheat) was 0%, the plant injury at 62 g/ha ([7]; Triticum aestivum, pre-emergence, 62 g ai/ha, scale 0 to 100, read-out: Plant response rating, Wheat) was 10% and the “Cocklebur plant response rating” value ([8]; 8 g ai/ha, scale 0 to 100) was 0. It also gave a pest or weed control at 16 g/ha ([8]; Xanthium strumarium, pre-emergence, 16 g ai/ha, scale 0 to 100 (0 no effect, 100 complete control), read-out: Plant response rating, Cocklebur) of 0%, a pest or weed control at 31 g/ha ([8]; Xanthium strumarium, pre-emergence, 31 g ai/ha, 0 to 100 scale, 0 no effect, 100 complete control, read-out: Plant response rating, Cocklebur) of 0% and a pest or weed control at 62 g/ha ([8]; Xanthium strumarium, pre-emergence, 62 g ai/ha, scale 0 to 100, read-out: Plant response rating, Cocklebur) of 0%. For the same molecule, the pest or weed control at 16 g/ha ([9]; Chenopodium album, pre-emergence, 16 g ai/ha, scale 0 to 100 (0 no effect, 100 complete control), read-out: Plant response rating, Lambsquarters) was 0%, the pest or weed control at 31 g/ha ([9]; Chenopodium album, pre-emergence, 31 g ai/ha, 0 to 100 scale, 0 no effect, 100 complete control, read-out: Plant response rating, Lambsquarters) was 0% and the pest or weed control at 62 g/ha ([9]; Chenopodium album, pre-emergence, 62 g ai/ha, scale 0 to 100, read-out: Plant response rating, Lambsquarters) was 0%. The “Lambsquarters plant response rating” value ([9]; 8 g ai/ha, scale 0 to 100) was 0, the pest or weed control at 16 g/ha ([10]; Cyperus, pre-emergence, 16 g ai/ha, scale 0 to 100 (0 no effect, 100 complete control), read-out: Plant response rating, Nutsedge, Yellow) was 0% and the pest or weed control at 31 g/ha ([10]; Cyperus, pre-emergence, 31 g ai/ha, 0 to 100 scale, 0 no effect, 100 complete control, read-out: Plant response rating, Nutsedge, Yellow) was 0%. For the same molecule, the pest or weed control at 62 g/ha ([10]; Cyperus, pre-emergence, 62 g ai/ha, scale 0 to 100, read-out: Plant response rating, Nutsedge, Yellow) was 0%, the “Nutsedge, Yellow plant response rating” value ([10]; 8 g ai/ha, scale 0 to 100) was 0 and the “Plant response rating, Kochia” value (kochia (Kochia scoparia); [12]) was 0. The “Plant response rating, Kochia” value (kochia (Kochia scoparia); [13]) was 0, the “Plant response rating, Kochia” value (kochia (Kochia scoparia); 62 g ai/ha, scale 0 to 100) was 0 and the “Kochia plant response rating” value (kochia (Kochia scoparia); 8 g ai/ha, scale 0 to 100) was 0. It also gave a pest or weed control at 16 g/ha ([11]; Galium aparine, pre-emergence, 16 g ai/ha, scale 0 to 100 (0 no effect, 100 complete control), read-out: Plant response rating, Galium) of 0%, a pest or weed control at 31 g/ha ([11]; Galium aparine, pre-emergence, 31 g ai/ha, 0 to 100 scale, 0 no effect, 100 complete control, read-out: Plant response rating, Galium) of 0% and a pest or weed control at 62 g/ha ([11]; Galium aparine, pre-emergence, 62 g ai/ha, scale 0 to 100, read-out: Plant response rating, Galium) of 0%. The “Galium plant response rating” value ([11]; 8 g ai/ha, scale 0 to 100) was 0.
